{"source": "ChEMBL document CHEMBL5058649", "about": "“Data for DCP probe BAY 1816032” (2022)", "key": {"[1]": {"target": "Serine/threonine-protein kinase RIO3 (Homo sapiens) (UniProt O14730)", "sequence (O14730 whole entry)": "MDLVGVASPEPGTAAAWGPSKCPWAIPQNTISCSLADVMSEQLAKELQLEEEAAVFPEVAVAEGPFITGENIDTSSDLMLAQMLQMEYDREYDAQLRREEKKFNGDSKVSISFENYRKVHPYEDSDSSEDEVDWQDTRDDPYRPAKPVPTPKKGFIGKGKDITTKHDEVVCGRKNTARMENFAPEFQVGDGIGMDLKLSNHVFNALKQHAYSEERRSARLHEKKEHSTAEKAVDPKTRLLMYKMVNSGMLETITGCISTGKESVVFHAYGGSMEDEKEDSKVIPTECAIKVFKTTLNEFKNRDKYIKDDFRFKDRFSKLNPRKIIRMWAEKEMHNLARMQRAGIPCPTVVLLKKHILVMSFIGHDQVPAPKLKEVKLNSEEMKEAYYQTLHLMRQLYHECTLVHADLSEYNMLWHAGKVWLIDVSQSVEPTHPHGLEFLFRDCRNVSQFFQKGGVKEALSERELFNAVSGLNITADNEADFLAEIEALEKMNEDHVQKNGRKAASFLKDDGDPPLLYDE", "assay": "RIOK3 DiscoveRx kinase panel", "details": "Compound concentration 1.0 uM"}, "[2]": {"target": "Cannabinoid receptor 2 (Homo sapiens) (UniProt P34972)", "details": "Compound concentration 10.0 uM"}, "[3]": {"target": "RAC-alpha serine/threonine-protein kinase (Homo sapiens) (UniProt P31749)", "sequence (P31749 whole entry)": "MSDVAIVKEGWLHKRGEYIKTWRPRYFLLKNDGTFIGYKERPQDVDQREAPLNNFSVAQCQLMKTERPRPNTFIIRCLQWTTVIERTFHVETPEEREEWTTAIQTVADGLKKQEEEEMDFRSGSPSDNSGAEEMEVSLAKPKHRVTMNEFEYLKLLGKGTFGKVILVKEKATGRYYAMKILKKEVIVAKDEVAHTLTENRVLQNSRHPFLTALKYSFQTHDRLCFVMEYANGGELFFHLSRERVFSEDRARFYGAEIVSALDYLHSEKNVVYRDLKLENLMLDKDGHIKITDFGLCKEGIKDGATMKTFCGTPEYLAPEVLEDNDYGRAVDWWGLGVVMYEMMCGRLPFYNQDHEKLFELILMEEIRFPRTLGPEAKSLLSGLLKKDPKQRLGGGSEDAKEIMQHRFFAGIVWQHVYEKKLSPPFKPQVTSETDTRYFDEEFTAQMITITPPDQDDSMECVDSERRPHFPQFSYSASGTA", "assay": "AKT1 DiscoveRx kinase panel", "details": "Compound concentration 1.0 uM"}, "[4]": {"target": "Serine/threonine-protein kinase TNNI3K (Homo sapiens) (UniProt Q59H18)", "assay": "TNNI3K DiscoveRx kinase panel", "details": "Compound concentration 1.0 uM"}, "[5]": {"target": "Serine/threonine-protein kinase 10 (Homo sapiens, UniProt O94804)", "assay": "LOK DiscoveRx kinase panel"}, "[6]": {"target": "Cyclin-dependent kinase 18 (Homo sapiens) (UniProt Q07002)", "assay": "PCTK3 DiscoveRx kinase panel", "details": "Compound concentration 1.0 uM"}, "[7]": {"target": "Ribosomal protein S6 kinase alpha-2 (Homo sapiens) (UniProt Q15349)", "assay": "RSK3(Kin.Dom.1-N-terminal) DiscoveRx kinase panel", "details": "Compound concentration 1.0 uM"}, "[8]": {"target": "GABA-A receptor; anion channel (Rattus norvegicus) (UniProt O09028+P15431+P18506+P18508+P19969+P20236+P23574+P23576+P28471+P28473+P30191+P62813+P63079+P63138+Q91ZM7+Q9ES14)", "details": "Compound concentration 10.0 uM"}, "[9]": {"target": "Ribosomal protein S6 kinase alpha-1 (Homo sapiens) (UniProt Q15418)", "assay": "RSK1(Kin.Dom.2-C-terminal) DiscoveRx kinase panel", "details": "Compound concentration 1.0 uM"}, "[10]": {"target": "Serine/threonine-protein kinase D2 (Homo sapiens) (UniProt Q9BZL6)", "assay": "PRKD2 DiscoveRx kinase panel", "details": "Compound concentration 1.0 uM"}, "[11]": {"target": "Phosphatidylinositol 4-phosphate 3-kinase C2 domain-containing subunit beta (Homo sapiens) (UniProt O00750)", "assay": "PIK3C2B DiscoveRx kinase panel", "details": "Compound concentration 1.0 uM"}, "[12]": {"target": "STE20/SPS1-related proline-alanine-rich protein kinase (Homo sapiens) (UniProt Q9UEW8)", "assay": "STK39 DiscoveRx kinase panel", "details": "Compound concentration 1.0 uM"}, "[13]": {"target": "Serine/threonine-protein kinase PAK 5 (Homo sapiens) (UniProt Q9P286)", "sequence (Q9P286 whole entry, looked up)": "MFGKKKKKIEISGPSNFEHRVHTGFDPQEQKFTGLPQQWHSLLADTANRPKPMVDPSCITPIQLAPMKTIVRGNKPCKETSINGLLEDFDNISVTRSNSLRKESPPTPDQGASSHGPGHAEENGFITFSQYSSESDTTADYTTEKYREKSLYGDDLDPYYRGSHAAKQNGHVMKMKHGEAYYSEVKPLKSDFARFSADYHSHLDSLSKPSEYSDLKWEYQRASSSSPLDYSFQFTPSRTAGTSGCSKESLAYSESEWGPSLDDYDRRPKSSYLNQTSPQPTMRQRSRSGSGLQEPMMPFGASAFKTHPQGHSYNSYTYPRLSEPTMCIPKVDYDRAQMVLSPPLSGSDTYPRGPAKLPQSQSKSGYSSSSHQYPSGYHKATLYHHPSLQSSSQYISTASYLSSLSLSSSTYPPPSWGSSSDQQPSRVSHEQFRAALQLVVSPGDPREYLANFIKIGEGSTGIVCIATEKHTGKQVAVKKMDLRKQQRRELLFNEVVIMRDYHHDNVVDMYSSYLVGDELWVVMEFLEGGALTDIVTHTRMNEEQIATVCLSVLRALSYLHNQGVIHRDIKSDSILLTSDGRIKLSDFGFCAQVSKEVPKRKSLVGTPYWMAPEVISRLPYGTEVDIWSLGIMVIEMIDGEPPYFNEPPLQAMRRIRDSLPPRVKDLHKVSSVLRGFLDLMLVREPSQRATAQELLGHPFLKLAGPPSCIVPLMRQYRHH", "assay": "PAK7 DiscoveRx kinase panel", "details": "Compound concentration 1.0 uM"}, "[14]": {"target": "Non-receptor tyrosine-protein kinase TYK2 (Homo sapiens) (UniProt P29597)", "assay": "TYK2(JH1domain-catalytic) DiscoveRx kinase panel", "details": "Compound concentration 1.0 uM"}, "[15]": {"target": "Angiopoietin-1 receptor (Homo sapiens) (UniProt Q02763)", "assay": "TIE2 DiscoveRx kinase panel", "details": "Compound concentration 1.0 uM"}, "[16]": {"target": "MAP kinase-interacting serine/threonine-protein kinase 2 (Homo sapiens) (UniProt Q9HBH9)", "assay": "MKNK2 DiscoveRx kinase panel", "details": "Compound concentration 1.0 uM"}, "[17]": {"target": "Beta-3 adrenergic receptor (Homo sapiens) (UniProt P13945)", "details": "Compound concentration 10.0 uM"}, "[18]": {"target": "Phosphatidylinositol 4,5-bisphosphate 3-kinase catalytic subunit gamma isoform (Homo sapiens) (UniProt P48736)", "sequence (P48736 whole entry, looked up, canonical isoform)": "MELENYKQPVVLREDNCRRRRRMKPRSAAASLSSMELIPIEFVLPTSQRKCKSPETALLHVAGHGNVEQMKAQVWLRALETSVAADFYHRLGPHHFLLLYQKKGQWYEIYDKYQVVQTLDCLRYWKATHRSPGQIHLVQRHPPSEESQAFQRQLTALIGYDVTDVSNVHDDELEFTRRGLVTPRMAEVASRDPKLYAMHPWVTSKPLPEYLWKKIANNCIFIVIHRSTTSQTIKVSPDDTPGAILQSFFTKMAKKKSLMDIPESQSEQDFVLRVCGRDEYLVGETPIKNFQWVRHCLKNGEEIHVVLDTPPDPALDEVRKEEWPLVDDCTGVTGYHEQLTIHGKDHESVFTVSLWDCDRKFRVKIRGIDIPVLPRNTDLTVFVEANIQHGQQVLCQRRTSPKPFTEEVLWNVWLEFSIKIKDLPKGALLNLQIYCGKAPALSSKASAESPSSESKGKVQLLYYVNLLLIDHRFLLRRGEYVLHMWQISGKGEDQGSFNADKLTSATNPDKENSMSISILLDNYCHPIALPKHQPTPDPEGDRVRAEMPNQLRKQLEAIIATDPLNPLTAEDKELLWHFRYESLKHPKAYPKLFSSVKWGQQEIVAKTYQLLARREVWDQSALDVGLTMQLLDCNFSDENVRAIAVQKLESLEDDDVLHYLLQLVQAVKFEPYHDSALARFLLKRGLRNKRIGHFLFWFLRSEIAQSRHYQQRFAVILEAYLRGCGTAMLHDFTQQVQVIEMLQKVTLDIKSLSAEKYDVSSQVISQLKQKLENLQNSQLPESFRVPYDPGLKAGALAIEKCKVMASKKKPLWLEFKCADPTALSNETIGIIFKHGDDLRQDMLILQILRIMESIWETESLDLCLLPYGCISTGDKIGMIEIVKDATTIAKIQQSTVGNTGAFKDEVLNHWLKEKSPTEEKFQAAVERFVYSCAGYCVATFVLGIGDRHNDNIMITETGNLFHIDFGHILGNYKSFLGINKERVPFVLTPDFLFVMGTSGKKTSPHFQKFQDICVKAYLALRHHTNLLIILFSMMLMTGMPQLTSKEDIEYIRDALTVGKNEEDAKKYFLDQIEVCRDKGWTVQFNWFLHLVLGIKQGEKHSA", "assay": "PIK3CG DiscoveRx kinase panel", "details": "Compound concentration 1.0 uM"}, "[19]": {"target": "NUAK family SNF1-like kinase 1 (Homo sapiens) (UniProt O60285)", "assay": "ARK5 DiscoveRx kinase panel", "details": "Compound concentration 1.0 uM"}, "[20]": {"target": "G protein-coupled receptor kinase 3 (Homo sapiens) (UniProt P35626)", "assay": "GRK3 DiscoveRx kinase panel", "details": "Compound concentration 1.0 uM"}, "[21]": {"target": "Cyclin-dependent kinase-like 5 (Homo sapiens) (UniProt O76039)", "assay": "CDKL5 DiscoveRx kinase panel", "details": "Compound concentration 1.0 uM"}, "[22]": {"test_system": "MDA-MB-453", "assay": "MDA-MB-453 cell line Proliferation assay", "assay_type": "functional, Homo sapiens", "details": "time 4 day"}, "[23]": {"target": "Serine/threonine-protein kinase TAO2 (Homo sapiens) (UniProt Q9UL54)", "assay": "TAOK2 DiscoveRx kinase panel", "details": "Compound concentration 1.0 uM"}, "[24]": {"assay": "HeLa-MaTu-ADR cell line Proliferation assay", "assay_type": "functional, Homo sapiens", "details": "time 4 day"}, "[25]": {"target": "Atypical kinase COQ8B, mitochondrial (Homo sapiens) (UniProt Q96D53)", "assay": "ADCK4 DiscoveRx kinase panel", "details": "Compound concentration 1.0 uM"}, "[26]": {"target": "5-hydroxytryptamine receptor 7 (Homo sapiens, UniProt P34969)", "sequence (P34969 whole entry)": "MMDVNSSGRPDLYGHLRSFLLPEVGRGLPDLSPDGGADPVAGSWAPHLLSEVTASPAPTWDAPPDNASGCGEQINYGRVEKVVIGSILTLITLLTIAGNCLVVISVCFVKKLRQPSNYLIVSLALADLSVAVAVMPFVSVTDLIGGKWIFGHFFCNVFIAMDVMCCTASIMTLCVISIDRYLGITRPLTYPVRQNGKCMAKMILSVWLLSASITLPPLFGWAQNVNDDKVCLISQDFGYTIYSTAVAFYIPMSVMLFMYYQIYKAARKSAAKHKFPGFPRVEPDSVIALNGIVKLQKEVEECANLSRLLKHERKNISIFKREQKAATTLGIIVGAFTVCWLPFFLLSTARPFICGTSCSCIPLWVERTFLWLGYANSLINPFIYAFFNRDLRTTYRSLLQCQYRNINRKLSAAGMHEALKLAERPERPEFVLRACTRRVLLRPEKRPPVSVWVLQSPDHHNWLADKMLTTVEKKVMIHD", "assay": "GPCRScan assay: inhibition of 5-HT7A", "set-up": "radioligand conc. used [nm] 5.0 – 6.0, parental cells Stable HEK"}, "[27]": {"target": "cAMP-dependent protein kinase catalytic subunit PRKX (Homo sapiens) (UniProt P51817)", "assay": "PRKX DiscoveRx kinase panel", "details": "Compound concentration 1.0 uM"}, "[28]": {"target": "Serine/threonine-protein kinase TAO1 (Homo sapiens) (UniProt Q7L7X3)", "assay": "TAOK1 DiscoveRx kinase panel", "details": "Compound concentration 1.0 uM"}, "[29]": {"target": "Mitotic checkpoint serine/threonine-protein kinase BUB1 (Homo sapiens, UniProt O43683)", "sequence (O43683 whole entry)": "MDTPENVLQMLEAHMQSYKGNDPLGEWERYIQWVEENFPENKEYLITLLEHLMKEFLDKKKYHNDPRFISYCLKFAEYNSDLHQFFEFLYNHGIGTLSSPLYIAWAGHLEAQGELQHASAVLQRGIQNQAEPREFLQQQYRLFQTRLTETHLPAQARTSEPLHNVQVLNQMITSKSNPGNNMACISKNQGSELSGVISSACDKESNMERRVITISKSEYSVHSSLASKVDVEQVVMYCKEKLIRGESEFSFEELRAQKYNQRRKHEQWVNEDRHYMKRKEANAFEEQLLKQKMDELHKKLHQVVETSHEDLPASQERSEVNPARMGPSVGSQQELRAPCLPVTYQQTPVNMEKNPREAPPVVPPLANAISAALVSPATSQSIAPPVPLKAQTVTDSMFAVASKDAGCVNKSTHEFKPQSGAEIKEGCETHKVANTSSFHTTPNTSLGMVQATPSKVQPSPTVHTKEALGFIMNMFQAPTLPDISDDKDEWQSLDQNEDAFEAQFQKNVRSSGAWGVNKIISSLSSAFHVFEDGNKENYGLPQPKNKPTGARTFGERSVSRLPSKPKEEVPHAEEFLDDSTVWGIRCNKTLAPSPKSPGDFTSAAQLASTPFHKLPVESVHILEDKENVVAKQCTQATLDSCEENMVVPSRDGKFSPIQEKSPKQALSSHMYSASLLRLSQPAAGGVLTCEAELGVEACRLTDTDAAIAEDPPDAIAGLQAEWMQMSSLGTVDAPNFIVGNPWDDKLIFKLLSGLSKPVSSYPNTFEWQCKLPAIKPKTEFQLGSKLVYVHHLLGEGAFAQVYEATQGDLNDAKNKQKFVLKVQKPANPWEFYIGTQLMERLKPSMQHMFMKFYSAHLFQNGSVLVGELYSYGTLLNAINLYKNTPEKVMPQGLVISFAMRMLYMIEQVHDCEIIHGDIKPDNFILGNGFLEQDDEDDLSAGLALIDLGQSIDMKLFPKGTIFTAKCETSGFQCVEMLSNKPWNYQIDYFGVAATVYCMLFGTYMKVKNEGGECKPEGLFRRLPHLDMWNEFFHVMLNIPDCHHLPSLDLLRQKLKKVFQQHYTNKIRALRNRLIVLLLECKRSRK", "assay": "Abrogation of histone H2A-Thr120 phosphorylation"}, "[30]": {"target": "Serine/threonine-protein kinase 16 (Homo sapiens) (UniProt O75716)", "assay": "STK16 DiscoveRx kinase panel", "details": "Compound concentration 1.0 uM"}, "[31]": {"target": "Serine/threonine-protein kinase PAK 4 (Homo sapiens) (UniProt O96013)", "assay": "PAK4 DiscoveRx kinase panel", "details": "Compound concentration 1.0 uM"}, "[32]": {"target": "Serine/threonine-protein kinase 17B (Homo sapiens) (UniProt O94768)", "sequence (O94768 whole entry)": "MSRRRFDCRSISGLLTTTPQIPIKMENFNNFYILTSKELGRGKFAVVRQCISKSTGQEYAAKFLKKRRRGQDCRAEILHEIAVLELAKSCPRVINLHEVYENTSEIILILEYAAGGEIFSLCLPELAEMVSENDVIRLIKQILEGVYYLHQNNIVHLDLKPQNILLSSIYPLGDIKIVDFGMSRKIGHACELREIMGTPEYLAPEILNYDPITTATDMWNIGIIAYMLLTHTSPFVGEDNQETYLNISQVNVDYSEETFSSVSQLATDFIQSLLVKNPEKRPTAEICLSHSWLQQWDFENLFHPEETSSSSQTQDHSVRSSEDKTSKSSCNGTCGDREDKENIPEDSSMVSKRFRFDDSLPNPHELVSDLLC", "assay": "DRAK2 DiscoveRx kinase panel", "details": "Compound concentration 1.0 uM"}, "[33]": {"target": "Prostaglandin G/H synthase 1 (Homo sapiens) (UniProt P23219)", "assay": "Inhibition of Cyclooxygenase COX-1 at compound concentration of 10.0 uM in the Eurofins-Panlabs enzyme assay (Eurofins_assay_116020)", "details": "Compound concentration 10.0 uM"}, "[34]": {"target": "cAMP-dependent protein kinase catalytic subunit alpha (Homo sapiens) (UniProt P17612)", "assay": "PKAC-alpha DiscoveRx kinase panel", "details": "Compound concentration 1.0 uM"}, "[35]": {"target": "Tyrosine-protein kinase ITK/TSK (Homo sapiens) (UniProt Q08881)", "assay": "ITK DiscoveRx kinase panel", "details": "Compound concentration 1.0 uM"}, "[36]": {"target": "Casein kinase I isoform delta (Homo sapiens) (UniProt P48730)", "assay": "CSNK1D DiscoveRx kinase panel", "details": "Compound concentration 1.0 uM"}, "[37]": {"target": "Glycogen synthase kinase-3 alpha (Homo sapiens, UniProt P49840)", "assay": "GSK3A DiscoveRx kinase panel"}, "[38]": {"target": "Tyrosine-protein kinase Fes/Fps (Homo sapiens) (UniProt P07332)", "assay": "FES DiscoveRx kinase panel", "details": "Compound concentration 1.0 uM"}, "[39]": {"target": "Wee1-like protein kinase 2 (Homo sapiens) (UniProt P0C1S8)", "assay": "WEE2 DiscoveRx kinase panel", "details": "Compound concentration 1.0 uM"}, "[40]": {"target": "Serine/threonine-protein kinase BRSK1 (Homo sapiens) (UniProt Q8TDC3)", "assay": "BRSK1 DiscoveRx kinase panel", "details": "Compound concentration 1.0 uM"}, "[41]": {"target": "Phosphatidylinositol 4-phosphate 5-kinase type-1 alpha (Homo sapiens) (UniProt Q99755)", "assay": "PIP5K1A DiscoveRx kinase panel", "details": "Compound concentration 1.0 uM"}, "[42]": {"target": "Serine/threonine-protein kinase SIK1 (Homo sapiens) (UniProt P57059)", "assay": "SIK DiscoveRx kinase panel", "details": "Compound concentration 1.0 uM"}, "[43]": {"organism": "Homo sapiens", "assay": "Chemokine CCR1 Eurofins-Panlabs radioligand binding assay", "set-up": "ligand concentration 0.1 nM", "details": "Compound concentration 10.0 uM"}, "[44]": {"target": "Insulin-like growth factor 1 receptor (Homo sapiens) (UniProt P08069)", "assay": "IGF1R DiscoveRx kinase panel", "details": "Compound concentration 1.0 uM"}, "[45]": {"target": "Serine/threonine-protein kinase 26 (Homo sapiens) (UniProt Q9P289)", "assay": "MST4 DiscoveRx kinase panel", "details": "Compound concentration 1.0 uM"}, "[46]": {"target": "Mitogen-activated protein kinase kinase kinase 4 (Homo sapiens) (UniProt Q9Y6R4)", "assay": "MAP3K4 DiscoveRx kinase panel", "details": "Compound concentration 1.0 uM"}, "[47]": {"target": "Protein kinase C eta type (Homo sapiens) (UniProt P24723)", "assay": "PRKCH DiscoveRx kinase panel", "details": "Compound concentration 1.0 uM"}}, "note": "Calls of active or inactive are those of the source. The rule behind the calls is not given here.", "data": [{"compound": "COc1cnccc1Nc1nc(-c2nn(Cc3c(F)cc(OCCO)cc3F)c3ccccc23)ncc1OC", "values": [{"measurement": "residual activity", "setting": "[1]", "value": 90, "unit": "%"}, {"measurement": "inhibition", "setting": "[2]", "value": 31, "unit": "%"}, {"measurement": "residual activity", "setting": "[3]", "value": 100, "unit": "%"}, {"measurement": "residual activity", "setting": "[4]", "value": 97, "unit": "%"}, {"measurement": "residual activity", "setting": "[5]", "value": 57, "unit": "%"}, {"measurement": "residual activity", "setting": "[5]; Compound concentration 1.0 uM", "value": 0.6, "unit": "%"}, {"measurement": "residual activity", "setting": "[6]", "value": 76, "unit": "%"}, {"measurement": "residual activity", "setting": "[7]", "value": 80, "unit": "%"}, {"measurement": "inhibition", "setting": "[8]", "value": 7, "unit": "%"}, {"measurement": "residual activity", "setting": "[9]", "value": 100, "unit": "%"}, {"measurement": "residual activity", "setting": "[10]", "value": 100, "unit": "%"}, {"measurement": "residual activity", "setting": "[11]", "value": 100, "unit": "%"}, {"measurement": "residual activity", "setting": "[12]", "value": 97, "unit": "%"}, {"measurement": "residual activity", "setting": "[13]", "value": 85, "unit": "%"}, {"measurement": "residual activity", "setting": "[14]", "value": 100, "unit": "%"}, {"measurement": "residual activity", "setting": "[15]", "value": 41, "unit": "%"}, {"measurement": "residual activity", "setting": "[16]", "value": 100, "unit": "%"}, {"measurement": "inhibition", "setting": "[17]", "value": 4.26, "unit": "%"}, {"measurement": "residual activity", "setting": "[18]", "value": 80, "unit": "%"}, {"measurement": "residual activity", "setting": "[19]", "value": 92, "unit": "%"}, {"measurement": "residual activity", "setting": "[20]", "value": 100, "unit": "%"}, {"measurement": "residual activity", "setting": "[21]", "value": 100, "unit": "%"}, {"measurement": "Cell Proliferation IC50", "setting": "[22]", "value": 1200, "unit": "nM"}, {"measurement": "residual activity", "setting": "[23]", "value": 100, "unit": "%"}, {"measurement": "Cell Proliferation IC50", "setting": "[24]", "value": 1100, "unit": "nM"}, {"measurement": "residual activity", "setting": "[25]", "value": 99, "unit": "%"}, {"measurement": "Ki", "setting": "[26]", "value": "> 10000", "unit": "nM"}, {"measurement": "pKi", "setting": "[26]", "value": "< 5"}, {"measurement": "residual activity", "setting": "[27]", "value": 100, "unit": "%"}, {"measurement": "residual activity", "setting": "[28]", "value": 100, "unit": "%"}, {"measurement": "IC50", "setting": "[29]", "value": "29 nM (active)"}, {"measurement": "residual activity", "setting": "[30]", "value": 65, "unit": "%"}, {"measurement": "residual activity", "setting": "[31]", "value": 82, "unit": "%"}, {"measurement": "residual activity", "setting": "[32]", "value": 83, "unit": "%"}, {"measurement": "inhibition", "setting": "[33]", "value": 54, "unit": "%"}, {"measurement": "residual activity", "setting": "[34]", "value": 100, "unit": "%"}, {"measurement": "residual activity", "setting": "[35]", "value": 100, "unit": "%"}, {"measurement": "residual activity", "setting": "[36]", "value": 68, "unit": "%"}, {"measurement": "Kd", "setting": "[37]", "value": "> 30000", "unit": "nM"}, {"measurement": "residual activity", "setting": "[37]; Compound concentration 1.0 uM", "value": 26, "unit": "%"}, {"measurement": "residual activity", "setting": "[38]", "value": 80, "unit": "%"}, {"measurement": "residual activity", "setting": "[39]", "value": 97, "unit": "%"}, {"measurement": "residual activity", "setting": "[40]", "value": 93, "unit": "%"}, {"measurement": "residual activity", "setting": "[41]", "value": 83, "unit": "%"}, {"measurement": "residual activity", "setting": "[42]", "value": 84, "unit": "%"}, {"measurement": "inhibition", "setting": "[43]", "value": -4, "unit": "%"}, {"measurement": "residual activity", "setting": "[44]", "value": 97, "unit": "%"}, {"measurement": "residual activity", "setting": "[45]", "value": 100, "unit": "%"}, {"measurement": "residual activity", "setting": "[46]", "value": 80, "unit": "%"}, {"measurement": "residual activity", "setting": "[47]", "value": 89, "unit": "%"}]}]}
